Data reported in patent publication US5210089A, “D-rhamnono-1,5-lactone” (Monsanto Company, priority 1992, dated 1993).
“Also recorded” adds a separate entry of the source.

Legend:
Format in all cases: biochemical
Lysosomal α-mannosidase = molecular target: T1, Lysosomal α-mannosidase (Homo sapiens, UniProt O00754); experiment: Human liver glycosidase assay, lysosomal α-mannosidase; design: human liver extracts; from tissue; host or cells: human liver extracts; conditions: for inhibition at 1000 µM: 1 mM compound, 4-methylumbelliferyl-glycoside substrate; for inhibition at 1000 µM / IC50: human liver; for IC50: read-out: I50, lysosomal α-mannosidase
T1 sequence (O00754 50-1011): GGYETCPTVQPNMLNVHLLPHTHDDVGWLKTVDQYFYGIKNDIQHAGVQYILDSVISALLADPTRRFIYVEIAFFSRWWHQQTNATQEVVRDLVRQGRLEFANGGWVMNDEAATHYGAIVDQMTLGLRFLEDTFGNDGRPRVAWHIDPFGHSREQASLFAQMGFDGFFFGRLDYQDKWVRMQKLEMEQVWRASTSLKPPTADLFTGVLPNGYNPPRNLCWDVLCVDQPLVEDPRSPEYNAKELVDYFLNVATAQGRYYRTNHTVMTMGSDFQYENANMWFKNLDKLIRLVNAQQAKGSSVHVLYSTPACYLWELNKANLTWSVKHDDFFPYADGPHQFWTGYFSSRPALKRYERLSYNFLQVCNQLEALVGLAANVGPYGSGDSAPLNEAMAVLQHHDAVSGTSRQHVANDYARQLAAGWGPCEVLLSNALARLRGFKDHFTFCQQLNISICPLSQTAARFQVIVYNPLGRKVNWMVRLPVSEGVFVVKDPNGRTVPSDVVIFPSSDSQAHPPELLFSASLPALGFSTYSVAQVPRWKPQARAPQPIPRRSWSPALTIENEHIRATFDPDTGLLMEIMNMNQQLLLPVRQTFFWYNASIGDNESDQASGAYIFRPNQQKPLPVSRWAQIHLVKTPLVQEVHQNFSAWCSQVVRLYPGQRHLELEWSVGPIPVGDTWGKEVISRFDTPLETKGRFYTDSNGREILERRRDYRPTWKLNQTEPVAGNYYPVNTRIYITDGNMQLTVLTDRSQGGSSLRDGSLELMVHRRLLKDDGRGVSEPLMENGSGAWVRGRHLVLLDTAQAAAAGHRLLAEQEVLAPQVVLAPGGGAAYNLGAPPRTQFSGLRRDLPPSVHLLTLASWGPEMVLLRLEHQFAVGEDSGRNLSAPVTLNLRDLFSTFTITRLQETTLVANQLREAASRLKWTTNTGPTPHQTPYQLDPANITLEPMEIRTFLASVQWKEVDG
Protocol: (§1) Melting points were recorded on a Kofler hot block. Proton nuclear magnetic resonance (δH) spectra were recorded on Varian Gemini 200 (at 200 MHz), Bruker WH 300 (300 MHz), or Bruker AM 500 (500 MHz) spectrometers. Carbon nuclear magnetic resonance (δC) spectra were recorded on a Varian Gemini 200 (50 MHz) or a Bruker 250 (62.9 MHz) spectrometer. Multiplicities were assigned using DEPT sequence on the Gemini and by off resonance decoupling on the Bruker. Spectra run in D2 O were referenced to methanol as an internal standard. All chemical shifts are quoted on the δ-scale. Infrared spectra were recorded on a Perkin-Elmer 297, or on a Perkin-Elmer 781 spectrophotometer. Mass spectra were recorded on VG Micromass 30F, ZAB lF, Masslab 20-250 or Trio-1 GCMS (DB-5 column) spectrometers using desorption chemical ionization (NH3 DCI), electron impact (EI), chemical ionization (NH3 CI) and fast atom bombardment (FAB) techniques, as stated. […] Concentrations were given in g/100 ml. Hydrogenations were run under an atmosphere of hydrogen gas maintained by inflated balloon. Microanalyses were performed by the microanalysis service of the DysonPerrins laboratory, Oxford UK. Thin layer chromatography (t.l.c.) was carried out on aluminum sheets coated with 60F254 silica. Plates were developed using either 5% v/v concentrated sulphuric acid in methanol, 0.2% w/v cerium (IV) sulphate and 5% ammonium molybdate in 2M sulphuric acid and 0.5% ninhydrin in methanol. Flash chromatography was carried out using Sorbsil C60 40/60 silica. Ion-exchange chromatography was performed using Dowex 50W-X8 (H) and Sigma CG 400 (Cl) resins. The resins were washed with 2M hydrochloric acid and 2M sodium hydroxide solution, respectively, and subsequently with distilled water, prior to use. Solvents and commercially available reagents were dried and purified before use according to standard procedures; dichloromethane was refluxed over and distilled from calcium hydride, N,N-dimethylformamide was distilled under reduced pressure from calcium hydride, methanol was distilled from magnesium methoxide, pyridine was distilled from, and stored over, potassium hydroxide and tetrahydrofuran was distilled from a purple solution of sodium benzophenone ketyl immediately before use. Hexane was distilled at 68° C. before use to remove involatile fractions. 2,3-O-Isopropylidene-L-gulono-1,4-lactone (9) [H. Ogura et al., J. Oro. Chem. 37, 72 (1972); G. W. J. Fleet Tetrahedron 45, 319 (1989)]and 2,3-O-isopropylidene-D-gulono-1,4-lactone (15) [L. M. Lerner et al., J. Org. Chem. 33, 1780 (1968)]were prepared from D- and L-Chem. gulonolactones [purchased from the Sigma Chemical Company] as reported previously. See, e.g., Fleet, U.S. Pat. No. 4,861,892. Human liver glycosidases were assayed in the absence and presence [1 mM] of each of the compounds using the appropriate buffered 4-methylumbellifeeryl-glycosides as substrates, as described previously. [B. Winchest et al., Biochem. J. 265, 277 (1990)]. Naringinase was assayed using pnitrophenyl α-L-rhamnoside (1.75 mM) as substrates, according to Romero [C. Romero et al., Anal. Biochem. 149, 566 (1985)].
(§2) The enzymes included human liver glycosidases and naringinase. The latter enzyme is a readily available endo-L-rhamnosidase described by Romero et al., Anal. Biochem. 149, 566 (1985).

[1] = test system: α-rhamnosidase (naringinase); experiment: Naringinase assay with p-nitrophenyl α-L-rhamnoside; conditions: for Inhibition (%) at 1 mM, α-rhamnosidase (naringinase): 1 mM compound, p-nitrophenyl α-L-rhamnoside 1.75 mM
Protocol: as §1, §2

Lysosomal α-fucosidase = molecular target: T2, Lysosomal α-fucosidase (Homo sapiens, UniProt P04066); experiment: Human liver glycosidase assay, lysosomal α-fucosidase; conditions: for inhibition at 1000 µM: 1 mM compound, human liver, read-out: Inhibition (%) at 1 mM, lysosomal α-fucosidase
T2 construct: human liver extracts; from tissue; host or cells: human liver extracts
T2 sequence (P04066 32-466): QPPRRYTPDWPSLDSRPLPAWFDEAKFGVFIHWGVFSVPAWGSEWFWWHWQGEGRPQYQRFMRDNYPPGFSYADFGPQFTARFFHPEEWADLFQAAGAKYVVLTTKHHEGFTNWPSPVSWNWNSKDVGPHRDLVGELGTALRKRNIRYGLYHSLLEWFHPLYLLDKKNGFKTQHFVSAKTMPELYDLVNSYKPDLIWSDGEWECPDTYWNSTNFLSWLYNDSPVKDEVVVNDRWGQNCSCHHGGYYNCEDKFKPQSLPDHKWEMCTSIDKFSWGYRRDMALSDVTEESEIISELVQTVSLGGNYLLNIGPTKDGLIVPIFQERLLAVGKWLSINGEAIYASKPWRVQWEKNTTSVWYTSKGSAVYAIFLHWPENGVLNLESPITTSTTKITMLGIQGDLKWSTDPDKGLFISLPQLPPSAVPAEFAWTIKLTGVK
Protocol: as §1, §2

Row | Compound | inhibition at 1000 µM (Lysosomal α-mannosidase) | IC50 (Lysosomal α-mannosidase) | Inhibition of α-mannosidase (in words) (Lysosomal α-mannosidase; listed as D-rhamnono-1,5-lactone) | Inhibition of α-rhamnosidase (in words) [1] | Inhibition (%) at 1 mM, α-rhamnosidase (naringinase) [1] | Inhibition of α-fucosidase (in words) (Lysosomal α-fucosidase) | inhibition at 1000 µM (Lysosomal α-fucosidase)
1 | C[C@H]1NC(=O)[C@@H](O)[C@@H](O)[C@@H]1O [D-Rhamno-1,5-lactam (6), 6-Deoxy-D-mannono-δ-lactam] | 86% | 100 µM | inhibitor of α- and β-mannosidases; also recorded: better inhibitor of α-mannosidase than deoxymannojirimycin (1) | not of α-rhamnosidase | 3% | does not show any significant inhibition | 0%
2 | C[C@@H]1NC(=O)[C@H](O)[C@H](O)[C@H]1O [L-Rhamno-1,5-lactam (8), 6-Deoxy-L-mannono-δ-lactam] | 0% |  |  | no inhibitory activity | 0% |  | 0%
3 | O=C1N[C@H](CO)[C@@H](O)[C@H](O)[C@@H]1O [Mannono-1,5-lactam (2), D-mannonolactam] | 94% | 50 µM |  |  | 12% |  | 0%
